“And” between values parts separate entries of the source, which are not always exact repeats. Equal values may be shown once. Read-outs that look alike come from different tables or passages of the source.
How the values were obtained:
A7r5 = assay: Inhibition of A7r5 mediated LDL oxidation (MDA); format: cell-based, rat; conditions: Rattus norvegicus; for inhibition at 100 µM: 10^-4 M; for inhibition at 10 µM: 10^-5 M; for inhibition at 1 µM: 10^-6 M
Description: A7r5 (ATCC CRL-1444, smooth muscles, thoracic aorta, BDIX rat) cells were cultured in 24 well plates, using the medium of DMEM (Dulbecco's modified Eagle's Medium) supplemented with 10% heat-inactivated FBS (fetal bovine serum) and 1% antibiotics. Confluent A7r5 from plates were washed with phosphate-buffered solution, and DMEM with 10% FBS and 1% antibiotics was added in a total volume of 0.5 ml/well. Cells (2 x 10^5 cells/ml) were preincubated without and with either test compounds (10^-6 - 10^-4 M) or Tocopherol (10^-6 - 10^-4 M) at 37 °C for 30 min. Then, A7r5 alone or A7r5 plus H2O2 (10^-7 M) were exposed to LDL (100 ug/ml) for 24 hr.
The inhibitory effect of the test compounds against the lipid peroxidation was evaluated by calculating MDA reduction rate of the test compounds compared with that of the control group same as the above example 5 (2).

[1] = tested on: brain ischemia-reperfusion in Sprague-Dawley rats; assay: Protection against brain damage induced by brain ischemia-reperfusion
Description: Male Sprague-Dawley rats (350±50 g, SamYook Experimental Animals Co., Korea) were anesthetized by the injection of pentobarbital sodium at a dose of 40 mg/kg, after which the femoral vein and the artery were cannulated with PE-10 while the left carotid artery was exposed. Five min. before the operation, 20 ug/kg of heparin sulfate was injected into the peritoneal cavity. For the continuous measurement of arterial pressure, with a insertion of a blood pressure measuring device into the femoral artery. About 10 ml of blood was taken from the femoral vein to reduce the blood pressure down to 30 mmHg. If the blood pressure is not reduced to less than 100 mmHg with a withdrawal of 7 ml of blood, the rats are considered to have high sympathetic tone.
While the blood pressure was maintained at 30 mmHg, the exposed left carotid artery was occluded for 20 min by an aneurysm clamp to cause cerebral ischemia. Then, the carotid clamps were removed and the extracted blood was reinfused. To minimize the systemic acidosis, the rats were reinfused with 5 ml of saline containing 0.84% bicarbonate sodium (bicarbonate saline). During operation and restoration period, body temperature was maintained at 37±0.5 °C with the aid of a thermal blanket and incandescent light bulbs. During their restoration from the operation, the body temperature was kept constant for 2 hours or more. […]
24 hours after the operation, the rats were sacrificed with a scaffold and the brain was removed rapidly (3 min). […] After photographs were taken of the stained sections, developed and printed, the percentages of the infarcted brain areas to the total brain were measured and analyzed using an image analyzing program (Image-Pro Plus ver. 3.0.1). […]
The protective effects of the test compounds on the brain damage caused by brain ischemia-reperfusion were expressed as a reduction percentages of infarcted brain areas compared with those of the control group.

[2] = A7r5 alone, LDL 100 ug/ml, 24 hr, read-out: % Inhibition LDL
[3] = A7r5 plus H2O2 (10^-7 M), read-out: % Inhibition LDL + H2O2 (10^-7M)

## COC(OC)[C@@]1(C)Oc2ccc(N)cc2[C@@H](NC(=NC#N)NCc2ccccc2)[C@@H]1O [Example 40, (2S, 3S, 4R)-N''-cyano-N-(6 - amino-3,4-dihydro-3-hydroxy-2-methyl-2-dimethoxymethyl-2H-benzopyran-4-yl)-N'-benzylguanidine]
A7r5; [2]
  inhibition at 100 µM: 57.5%
  inhibition at 10 µM: 51.4%
  inhibition at 1 µM: 40.9%
A7r5; [3]
  inhibition at 100 µM: 64.3%
  inhibition at 10 µM: 62.5%
  inhibition at 1 µM: 49.7%
[1]; Dose 30 mg/kg, compared with the control group
  Infarction Area Reduction(%): 42.0%
[1]; Dose 30 mg/kg, peritoneally, 30 min before and 2, 4, 16 hours after occlusion
  Infarction Area Mean±SD(%): 23.0% and 23.0 ± 3.3%
[1]; rat, in vivo, 30 mg/kg
  side effects: did not suffer from any side effects
